These results are taken from patent publication US12570695B2, “Bicyclic peptide ligands specific for EphA2” (priority 2019, dated 2026).

For the experiment, the target named is human EphA2 (Homo sapiens, UniProt P29317). The experiment can be described thus: biochemical.

Starred links: 1 amine or outer side, 2 acyl side, 3 side chain; linkers in the order of their positions; H or OH if unused. Positions of bridges follow the written chain, without caps; N, C: chain ends. Non-standard residues stand in square brackets, D forms with d. Residues, ends and D or L forms follow the SMILES beside them. TATA = O=C(CC[*:1])N1CN(C(=O)CC[*:2])CN(C(=O)CC[*:3])C1; Hyp = O=C(O)[C@@H]1C[C@@H](O)CN1; hArg = N=C(N)NCCCC[C@H](N)C(=O)O; 2Thi = N[C@@H](Cc1cccs1)C(=O)O; 3Thi = N[C@@H](Cc1ccsc1)C(=O)O

Sequence of human EphA2 (P29317 24-976): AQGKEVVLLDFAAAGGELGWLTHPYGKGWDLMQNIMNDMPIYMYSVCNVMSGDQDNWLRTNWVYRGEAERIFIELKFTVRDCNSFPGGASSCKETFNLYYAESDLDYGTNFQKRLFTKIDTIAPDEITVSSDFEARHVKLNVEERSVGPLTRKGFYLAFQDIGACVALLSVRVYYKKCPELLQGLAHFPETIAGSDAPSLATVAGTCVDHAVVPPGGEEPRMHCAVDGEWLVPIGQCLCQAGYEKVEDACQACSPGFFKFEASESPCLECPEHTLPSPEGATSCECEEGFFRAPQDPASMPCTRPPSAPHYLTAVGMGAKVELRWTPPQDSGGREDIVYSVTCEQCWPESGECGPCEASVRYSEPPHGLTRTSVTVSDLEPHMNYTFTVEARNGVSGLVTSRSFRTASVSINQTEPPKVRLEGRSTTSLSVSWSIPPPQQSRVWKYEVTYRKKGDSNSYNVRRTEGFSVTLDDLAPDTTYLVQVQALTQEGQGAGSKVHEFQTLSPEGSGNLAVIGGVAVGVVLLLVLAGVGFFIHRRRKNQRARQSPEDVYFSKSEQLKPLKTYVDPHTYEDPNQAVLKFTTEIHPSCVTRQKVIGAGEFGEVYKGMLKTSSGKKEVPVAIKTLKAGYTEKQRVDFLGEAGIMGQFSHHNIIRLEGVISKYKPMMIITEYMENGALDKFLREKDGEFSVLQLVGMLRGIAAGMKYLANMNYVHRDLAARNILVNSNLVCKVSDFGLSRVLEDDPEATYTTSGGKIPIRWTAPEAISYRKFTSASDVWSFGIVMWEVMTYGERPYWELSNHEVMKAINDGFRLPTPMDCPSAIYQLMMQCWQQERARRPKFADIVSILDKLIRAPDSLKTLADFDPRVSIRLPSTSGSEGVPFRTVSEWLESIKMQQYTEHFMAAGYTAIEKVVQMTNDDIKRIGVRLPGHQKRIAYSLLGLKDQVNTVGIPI

By Ki is commonly meant a dissociation constant, usually derived from enzyme kinetics or from competition with a known ligand. Low readings indicate a stronger hold on the target, high ones a looser hold on the target. `CC(C)C[C@@H]1NC(=O)[C@@H]2CSCCC(=O)N3CN(CN(C3)C(=O)CCSC[C@H](NC(=O)[C@H](CC(=O)O)NC(=O)[C@H](CCCCNC(=N)N)NC(=O)[C@H](C)N)C(=O)N3C[C@H](O)C[C@H]3C(=O)N[C@@H](CC(C)C)C(=O)N[C@@H](C(C)C)C(=O)N[C@@H](CC(N)=O)C(=O)N3CCC[C@H]3C(=O)N[C@@H](CC(C)C)C(=O)N2)C(=O)CCSC[C@@H](C(N)=O)NC(=O)[C@H](CCCCNC(=N)N)NC(=O)[C@H](Cc2c[nH]c3ccccc23)NC(=O)[C@@H](CC(=O)O)NC(=O)[C@@H]2CCCN2C(=O)[C@H](Cc2cccs2)NC1=O` [BCY13922, A[HArg]DCi[HyP]LVNPLCiiL[Thi]P[dD]W[HArg]Ciii] (H-A[hArg]DC[Hyp]LVNPLCL[2Thi]P[dD]W[hArg]C-NH2; linker 4-11-18 via TATA; N-terminus and C-terminus assumed) displayed a Ki of 1.14 nM.

In the case of `CC(C)C[C@@H]1NC(=O)[C@@H]2CSCCC(=O)N3CN(CN(C3)C(=O)CCSC[C@H](NC(=O)[C@H](CC(=O)O)NC(=O)[C@H](CCCCNC(=N)N)NC(=O)[C@H](C)N)C(=O)N3C[C@H](O)C[C@H]3C(=O)N[C@@H](CC(C)C)C(=O)N[C@@H](C(C)C)C(=O)N[C@@H](CC(N)=O)C(=O)N3CCC[C@H]3C(=O)N[C@@H](CC(C)C)C(=O)N2)C(=O)CCSC[C@@H](C(N)=O)NC(=O)[C@H](CCCCNC(=N)N)NC(=O)[C@H](Cc2c[nH]c3ccccc23)NC(=O)[C@@H](CC(=O)O)NC(=O)[C@@H]2CCCN2C(=O)[C@H](Cc2ccsc2)NC1=O` [BCY13923, A[HArg]DCi[HyP]LVNPLCiiL[3Thi]P[dD]W[HArg]Ciii] (H-A[hArg]DC[Hyp]LVNPLCL[3Thi]P[dD]W[hArg]C-NH2; linker 4-11-18 via TATA; N-terminus and C-terminus assumed), the affinity, expressed as Ki, was 1.32 nM. This Ki and that of the molecule before are within 1.5-fold of each other.

Consider `CC(C)C[C@@H]1NC(=O)[C@@H]2CSCCC(=O)N3CN(CN(C3)C(=O)CCSC[C@H](NC(=O)[C@H](CC(=O)O)NC(=O)[C@H](CCCCNC(=N)N)NC(=O)[C@H](C)N)C(=O)N3C[C@H](O)C[C@H]3C(=O)N[C@@H](CC(C)C)C(=O)N[C@@H](C(C)C)C(=O)N[C@@H](CC(N)=O)C(=O)N3CCC[C@H]3C(=O)N[C@@H](CC(C)C)C(=O)N2)C(=O)CCSC[C@@H](C(N)=O)NC(=O)[C@H](CCCCNC(=N)N)NC(=O)[C@H](Cc2c[nH]c3ccccc23)NC(=O)[C@@H](CC(=O)O)NC(=O)[C@@H]2CCCN2C(=O)[C@H](CC(N)=O)NC1=O` [BCY14047, A[HArg]DCi[HyP]LVNPLCiiLNP[dD]W[HArg]Ciii] (H-A[hArg]DC[Hyp]LVNPLCLNP[dD]W[hArg]C-NH2; linker 4-11-18 via TATA; N-terminus and C-terminus assumed), for which the inhibitory constant (Ki) stood at 3.88 nM.

Molecule `CC(C)C[C@@H]1NC(=O)[C@@H]2CSCCC(=O)N3CN(CN(C3)C(=O)CCSC[C@H](NC(=O)[C@H](CC(=O)O)NC(=O)[C@H](CCCCNC(=N)N)NC(=O)[C@H](C)N)C(=O)N3C[C@H](O)C[C@H]3C(=O)N[C@@H](CC(C)C)C(=O)N[C@@H](C(C)C)C(=O)N[C@@H](CC(N)=O)C(=O)N3CCC[C@H]3C(=O)N[C@@H](CC(C)C)C(=O)N2)C(=O)CCSC[C@@H](C(N)=O)NC(=O)[C@H](CCCCNC(=N)N)NC(=O)[C@H](Cc2c[nH]c3ccccc23)NC(=O)[C@@H](CC(=O)O)NC(=O)[C@@H]2CCCN2C(=O)[C@H](CCC(N)=O)NC1=O` [BCY14048, A[HArg]DCi[HyP]LVNPLCiiLQP[dD]W[HArg]Ciii] (H-A[hArg]DC[Hyp]LVNPLCLQP[dD]W[hArg]C-NH2; linker 4-11-18 via TATA; N-terminus and C-terminus assumed) had a Ki of 4.1 nM.
